Results as given in patent US6723753B2, “Substituted n-benzyl-n-phenyl aminoalcohol compounds useful for inhibiting cholesteryl ester transfer protein activity” (Pharmacia Corporation, priority 2002, dated 2004).
Where two headings read alike, the source gives them in different places.

Biological target: T1, CETP (Homo sapiens, UniProt P11597)
T1 sequence (P11597 18-493): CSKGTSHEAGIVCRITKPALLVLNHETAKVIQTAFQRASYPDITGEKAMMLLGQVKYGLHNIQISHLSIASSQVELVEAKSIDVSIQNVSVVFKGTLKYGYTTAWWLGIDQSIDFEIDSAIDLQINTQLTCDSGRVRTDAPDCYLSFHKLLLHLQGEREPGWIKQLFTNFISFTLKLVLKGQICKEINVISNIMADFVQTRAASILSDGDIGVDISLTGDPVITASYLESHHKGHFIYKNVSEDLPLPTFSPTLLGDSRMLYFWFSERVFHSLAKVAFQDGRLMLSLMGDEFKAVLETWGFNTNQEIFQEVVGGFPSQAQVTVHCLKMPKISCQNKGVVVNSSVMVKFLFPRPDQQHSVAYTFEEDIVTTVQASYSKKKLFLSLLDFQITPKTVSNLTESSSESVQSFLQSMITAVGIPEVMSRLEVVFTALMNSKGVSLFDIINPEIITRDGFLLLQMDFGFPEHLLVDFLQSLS
Test: Assay of CETP Inhibition using Purified Components (Reconstituted Buffer Assay)
Assay type: biochemical
Design: made in house; host or cells: CHO cells (serum-free conditioned medium)
Settings: transfer of [3H]CE from HDL to LDL
Protocol: Assay of CETP Inhibition using Purified Components (Reconstituted Buffer Assay)
The ability of compounds to inhibit CETP activity was assessed using an in vitro assay that measured the rate of transfer of radiolabeled cholesteryl ester ([^3H]CE) from HDL donor particles to LDL acceptor particles. Details of the assay are provided by Glenn, K. C. et al. (Glenn and Melton, “Quantification of Cholesteryl Ester Transfer Protein (CETP): A) CETP Activity and B) Immunochemical Assay of CETP Protein,” Meth. Enzymol., 263, 339-351 (1996)). Human recombinant CETP can be obtained from the serum-free conditioned medium of CHO cells transfected with a cDNA for CETP and purified as described by Wang, S. et al. (J. Biol. Chem. 267, 17487-17490 (1992)). To measure CETP activity, [^3H]CE-labeled-HDL, LDL, CETP and assay buffer (50 mM tris(hydroxymethyl)aminomethane, pH 7.4; 150 mM sodium chloride; 2 mM ethylenediamine-tetraacetic acid (EDTA); 1% bovine serum albumin) were incubated in a final volume of 200 μL, for 2 hours at 37° C. in 96 well plates. […] The inhibitors were then diluted 1:1 with CETP in assay buffer, and then 25 μL of that solution was mixed with 175 μL of lipoprotein pool for assay. Following incubation, LDL was differentially precipitated by the addition of 50 μL of 1% (w/v) dextran sulfate/0.5 M magnesium chloride, mixed by vortex, and incubated at room temperature for 10 minutes. A potion of the solution (200 μL) was transferred to a filter plate (Millipore). After filtration, the radioactivity present in the precipitated LDL was measured by liquid scintillation counting.
This value was defined as the IC50.
Examples of IC50 values determined by these methods are specified in Table 9.

[1] = Inhibition of CETP activity in reconstituted buffer assay, read-out: IC50

Compound | IC50 [1] [µM] | IC50 (IC50, Inhibition of CETP activity in reconstituted buffer assay) [µM]
CCCCCCCCc1ccc(N(Cc2cccc(OC(F)(F)F)c2)CC(O)C(F)(F)F)cc1 (stereo not shown) [Example 88] | 75 | –
OC(CN(Cc1cccc(Oc2ccc(Cl)cc2)c1)c1cccc(Oc2ccccc2)c1)C(F)(F)F (stereo not shown) [Example 92] | 12 | –
OC(CN(Cc1cccc(Oc2ccc(Cl)c(Cl)c2)c1)c1cccc(Oc2ccccc2)c1)C(F)(F)F (stereo not shown) [Example 94] | 40 | –
OC(CN(Cc1cccc(Oc2ccc(Cl)c(Cl)c2)c1)c1cccc(OC(F)(F)F)c1)C(F)(F)F (stereo not shown) [Example 95] | 60 | –
COc1ccc(CN(CC(O)C(F)(F)F)c2cccc(OC(F)(F)F)c2)cc1OCc1ccccc1 (stereo not shown) [Example 99] | > 100 | –
OC(CN(Cc1ccc(OCc2ccccc2)c(OCc2ccccc2)c1)c1cccc(OC(F)(F)F)c1)C(F)(F)F (stereo not shown) [Example 100] | 90 | –
CCOc1cccc(CN(CC(O)C(F)(F)F)c2cccc(OC(F)(F)F)c2)c1 (stereo not shown) [Example 101] | 6 | –
CC(=O)Oc1cccc(CN(CC(O)C(F)(F)F)c2cccc(OC(F)(F)F)c2)c1 (stereo not shown) [Example 102] | 60 | –
OCCOc1cccc(CN(CC(O)C(F)(F)F)c2cccc(OC(F)(F)F)c2)c1 (stereo not shown) [Example 103] | 35 | –
OC(CN(Cc1ccc2c(c1)OCCO2)c1cccc(OC(F)(F)F)c1)C(F)(F)F (stereo not shown) [Example 105] | 35 | –
COc1cc(CN(CC(O)C(F)(F)F)c2cccc(OC(F)(F)F)c2)ccc1OCc1ccccc1 (stereo not shown) [Example 106] | 30 | –
OC(CN(Cc1cc(OCc2ccccc2)cc(OCc2ccccc2)c1)c1cccc(OC(F)(F)F)c1)C(F)(F)F (stereo not shown) [Example 107] | 75 | –
OC(CN(Cc1cccc(Oc2cccc(C(F)(F)F)c2)c1)c1cccc(C(F)(F)F)c1)C(F)(F)F (stereo not shown) [Example 108] | 60 | –
OC(CN(Cc1cccc(Oc2ccccc2)c1)c1cccc(C(F)(F)F)c1)C(F)(F)F (stereo not shown) [Example 109] | 25 | –
OC(CN(Cc1cccc(Oc2cccc(C(F)(F)F)c2)c1)c1ccc(C(F)(F)F)cc1)C(F)(F)F (stereo not shown) [Example 110] | 60 | –
OC(CN(Cc1cccc(Oc2ccccc2)c1)c1ccc(C(F)(F)F)cc1)C(F)(F)F (stereo not shown) [Example 111] | 65 | –

Compound | IC50 [1] [µM] | IC50 (IC50, Inhibition of CETP activity in reconstituted buffer assay) [µM]
O=[N+]([O-])c1cccc(CN(CC(O)C(F)(F)F)c2cccc(Oc3ccccc3)c2)c1 (stereo not shown) [Example 113] | 20 | –
OC(CN(Cc1cccc(Oc2cc(Cl)cc(Cl)c2)c1)c1cccc(Oc2ccccc2)c1)C(F)(F)F (stereo not shown) [Example 114] | 40 | –
COc1ccc(CN(CC(O)C(F)(F)F)c2cccc(OC(F)(F)F)c2)cc1OC (stereo not shown) [Example 116] | 40 | –
CCOc1cc(CN(CC(O)C(F)(F)F)c2cccc(OC(F)(F)F)c2)ccc1OC (stereo not shown) [Example 117] | 25 | –
CC(=O)Oc1ccc(CN(CC(O)C(F)(F)F)c2cccc(OC(F)(F)F)c2)cc1OC(C)=O (stereo not shown) [Example 118] | 45 | –
COc1cc(CN(CC(O)C(F)(F)F)c2cccc(OC(F)(F)F)c2)ccc1OC(C)=O (stereo not shown) [Example 119] | 70 | –
COc1cccc(CN(CC(O)C(F)(F)F)c2cccc(OC(F)(F)F)c2)c1 (stereo not shown) [Example 121] | > 100 | –
COc1ccc(CN(CC(O)C(F)(F)F)c2cccc(OC(F)(F)F)c2)cc1 (stereo not shown) [Example 122] | 8 | –
COc1cccc(CN(CC(O)C(F)(F)F)c2cccc(OC)c2)c1 (stereo not shown) [Example 123] | 90 | –
COc1cccc(N(Cc2cccc(OC(F)(F)F)c2)CC(O)C(F)(F)F)c1 (stereo not shown) [Example 124] | 8 | –
CCCOc1ccc(CN(CC(O)C(F)(F)F)c2cccc(OC(F)(F)F)c2)cc1 (stereo not shown) [Example 125] | 25 | –
OC(CN(Cc1cccc(OC(F)(F)F)c1)c1ccc2c(c1)OCO2)C(F)(F)F (stereo not shown) [Example 129] | 9 | –
OC(CN(Cc1cccc(Oc2ccccc2)c1)c1ccc2c(c1)OCO2)C(F)(F)F (stereo not shown) [Example 130] | 80 | –
OC(CN(Cc1cccc(OC(F)(F)F)c1)c1ccc(Oc2ccccc2)cc1)C(F)(F)F (stereo not shown) [Example 133] | – | 25
N#Cc1ccc(N(Cc2cccc(OC(F)(F)F)c2)CC(O)C(F)(F)F)cc1 (stereo not shown) [Example 163] | 10 | –

The next lines start with results.

IC50 [1] [µM] | Compound | IC50 (IC50, Inhibition of CETP activity in reconstituted buffer assay) [µM]
25 | COc1ccc(N(Cc2cccc(OC(F)(F)F)c2)CC(O)C(F)(F)F)cc1OC (stereo not shown) [Example 132] | –
6 | OC(CN(Cc1cccc(OC(F)(F)F)c1)c1ccc(OC(F)(F)F)cc1)C(F)(F)F (stereo not shown) [Example 134] | –
20 | CCCCOc1ccc(N(Cc2cccc(OC(F)(F)F)c2)CC(O)C(F)(F)F)cc1 (stereo not shown) [Example 135] | –
12 | OC(CN(Cc1cccc(OC(F)(F)F)c1)c1ccc(Cc2ccccc2)cc1)C(F)(F)F (stereo not shown) [Example 136] | –
20 | OC(CN(Cc1ccc2c(c1)OCCO2)c1cccc(Oc2ccccc2)c1)C(F)(F)F (stereo not shown) [Example 137] | –
30 | CCOc1ccc(CN(CC(O)C(F)(F)F)c2cccc(OC(F)(F)F)c2)cc1OCC (stereo not shown) [Example 138] | –
8 | OC(CN(Cc1cccc(OC(F)(F)F)c1)c1ccc2c(c1)OCCCO2)C(F)(F)F (stereo not shown) [Example 139] | –
40 | N#Cc1cccc(N(Cc2ccc(C(F)(F)F)cc2)CC(O)C(F)(F)F)c1 (stereo not shown) [Example 142] | –
80 | OC(CN(Cc1ccc(-c2ccccc2)cc1)c1cccc(C(F)(F)F)c1)C(F)(F)F (stereo not shown) [Example 143] | –
15 | OC(CN(Cc1cc(C(F)(F)F)cc(C(F)(F)F)c1)c1cccc(Oc2ccccc2)c1)C(F)(F)F (stereo not shown) [Example 145] | –
10 | N#Cc1ccc(CN(CC(O)C(F)(F)F)c2cccc(Oc3ccccc3)c2)cc1 (stereo not shown) [Example 146] | –
8 | N#Cc1cccc(CN(CC(O)C(F)(F)F)c2cccc(Oc3ccccc3)c2)c1 (stereo not shown) [Example 147] | –
15 | O=[N+]([O-])c1ccc(CN(CC(O)C(F)(F)F)c2cccc(Oc3ccccc3)c2)cc1 (stereo not shown) [Example 148] | –
> 100 | OC(CN(Cc1cccc(Oc2ccccc2)c1)c1ccc(Oc2ccccc2)cc1)C(F)(F)F (stereo not shown) [Example 151] | –
8 | OC(CN(Cc1ccc(Oc2ccccc2)cc1)c1cccc(OC(F)(F)F)c1)C(F)(F)F (stereo not shown) [Example 152] | –
4 | OC(CN(Cc1ccc(Oc2ccccc2)cc1)c1cccc(Oc2ccccc2)c1)C(F)(F)F (stereo not shown) [Example 153] | –
> 100 | OC(CN(Cc1ccc(Oc2ccccc2)cc1)c1ccc(Oc2ccccc2)cc1)C(F)(F)F (stereo not shown) [Example 154] | –
> 100 | OC(CN(Cc1ccc(OC(F)(F)F)cc1)c1ccc(Oc2ccccc2)cc1)C(F)(F)F (stereo not shown) [Example 155] | –
40 | CS(=O)(=O)c1ccc(CN(CC(O)C(F)(F)F)c2cccc(Oc3ccccc3)c2)cc1 (stereo not shown) [Example 156] | –
> 100 | COC(=O)c1ccc(CN(CC(O)C(F)(F)F)c2cccc(Oc3ccccc3)c2)cc1 (stereo not shown) [Example 157] | –
12 | CCOc1ccc(CN(CC(O)C(F)(F)F)c2cccc(OC(F)(F)F)c2)cc1 (stereo not shown) [Example 158] | –
3.5 | COc1ccc(N(Cc2cccc(OC(F)(F)F)c2)CC(O)C(F)(F)F)cc1OC1CCCC1 (stereo not shown) [Example 159] | –
20 | COc1cc(N(Cc2cccc(OC(F)(F)F)c2)CC(O)C(F)(F)F)cc(OC)c1OC (stereo not shown) [Example 160] | –
> 100 | COc1ccc(Oc2cccc(CN(CC(O)C(F)(F)F)c3cccc(Oc4ccccc4)c3)c2)cc1 (stereo not shown) [Example 161] | –
7 | N#Cc1cccc(N(Cc2cccc(OC(F)(F)F)c2)CC(O)C(F)(F)F)c1 (stereo not shown) [Example 162] | –
90 | OC(CN(Cc1cccc(Oc2ccccc2)c1)c1ccc(Oc2ccc(Cl)cc2)cc1)C(F)(F)F (stereo not shown) [Example 165] | –
2 | N#Cc1ccc(-c2ccc(N(Cc3cccc(OC(F)(F)F)c3)CC(O)C(F)(F)F)cc2)cc1 (stereo not shown) [Example 167] | –
